In general, pIC50 refers to −log10 of the IC50, conventionally taken in molar units.

pIC50: −log10 of the molar value. Structures can show the parent of a compound that is named as a salt.

The target in the first assay is Recombinant human cathepsin S (CatS) (Homo sapiens, UniProt P25774). As to the kind of experiment: Recombinant human cathepsin S (CatS) inhibition assay, fluorogenic substrate Z-Valine-Valine-Arginine-AMC.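 Further: Baculovirus-expressed CatS in pH 5.0 sodium acetate buffer with DTT and NaCl, fluorescence read each minute over 20 min, inhibition derived from rate slope.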
Chain of Recombinant human cathepsin S (CatS) (P25774 115-331): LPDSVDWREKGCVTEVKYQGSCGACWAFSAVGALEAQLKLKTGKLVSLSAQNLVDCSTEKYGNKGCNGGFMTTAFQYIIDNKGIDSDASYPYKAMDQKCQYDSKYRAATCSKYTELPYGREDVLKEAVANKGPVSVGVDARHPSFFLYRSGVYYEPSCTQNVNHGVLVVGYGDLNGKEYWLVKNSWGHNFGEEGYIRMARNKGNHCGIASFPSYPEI
Settings: not given
With `NC(=O)N1CCc2c(c(-c3ccc(Cl)c(C#Cc4ccc(Cl)c(C(=O)NCC5CNCCO5)c4)c3)nn2CCCN2CCSCC2)C1` (centres unmarked) [Example 584, 3-[4-Chloro-3-({4-chloro-3-[(morpholin-2-ylmethyl)carbamoyl]phenyl}ethynyl)phenyl]-1-(3-thiomorpholin-4-ylpropyl)-1,4,6,7-tetrahydro-5H-pyrazolo[4,3-c]pyridine-5-carboxamide], the pIC50 was 7.40.
Turning to `CS(=O)(=O)N1CCc2c(c(-c3ccc(Cl)c(C#Cc4ccc(Oc5ccccc5)cc4)c3)nn2CCCN2CCOCC2)C1` [Example 17, 3-[4-Chloro-3-(4-phenoxy-phenylethynyl)-phenyl]-5-methanesulfonyl-1-(3-morpholin-4-yl-propyl)-4,5,6,7-tetrahydro-1H-pyrazolo[4,3-c]pyridine], the pIC50 was 5.72.
For `CS(=O)(=O)N1CCc2c(c(-c3ccc(Cl)c(CCCNS(=O)(=O)c4ccccc4C(=O)O)c3)nn2CCCN2CCC(N3CCCC3=O)CC2)C1` [Example 88, 2-{3-[2-Chloro-5-(5-methanesulfonyl-1-{3-[4-(2-oxo-pyrrolidin-1-yl)-piperidin-1-yl]-propyl}-4,5,6,7-tetrahydro-1H-pyrazolo[4,3-c]pyridin-3-yl)-phenyl]-propylsulfamoyl}-benzoic acid, trifluoroacetic acid salt], the pIC50 was 6.28.
As for `CS(=O)(=O)N1CCc2c(c(-c3ccc(Cl)c(C#CCNC(=O)c4ccccc4)c3)nn2CCCN2CCOCC2)C1` [Example 53, N-(3-{2-Chloro-5-[5-methanesulfonyl-1-(3-morpholin-4-yl-propyl)-4,5,6,7-tetrahydro-1H-pyrazolo[4,3-c]pyridin-3-yl]-phenyl}-prop-2-ynyl)-benzamide], the pIC50 was 4.81.
For the molecule `CS(=O)(=O)N1CCc2c(c(-c3ccc(Cl)c(C#Cc4ccc5c(c4)CC(C(=O)N4CCCC4)NC5)c3)nn2CCCN2CCOCC2)C1` (centres unmarked) [Example 484, 6-({2-Chloro-5-[5-(methylsulfonyl)-1-(3-morpholin-4-ylpropyl)-4,5,6,7-tetrahydro-1H-pyrazolo[4,3-c]pyridin-3-yl]phenyl}ethynyl)-3-(pyrrolidin-1-ylcarbonyl)-1,2,3,4-tetrahydroisoquinoline], the negative logarithm of the IC50 (pIC50) was 6.74.
With `CS(=O)(=O)N1CCc2c(c(-c3ccc(Cl)c(CCCCO)c3)nn2CCCN2CCOCC2)C1` [Example 300, 4-{2-Chloro-5-[5-(methylsulfonyl)-1-(3-morpholin-4-ylpropyl)-4,5,6,7-tetrahydro-1H-pyrazolo[4,3-c]pyridin-3-yl]phenyl}butan-1-ol], the pIC50 is 5.04.
As for `C[C@H]1COCCN1CCCn1nc(-c2ccc(Cl)c(C#Cc3ccc(Cl)c(CN(CCO)CCO)c3)c2)c2c1CCN(C(=O)C(N)=O)C2` [Example 272, (S)-2-{3-[3-(3-{[Bis-(2-hydroxy-ethyl)-amino]-methyl}-4-chloro-phenylethynyl)-4-chloro-phenyl]-1-[3-(3-methyl-morpholin-4-yl)-propyl]-1,4,6,7-tetrahydro-pyrazolo[4,3-c]pyridin-5-yl}-2-oxo-acetamide], the pIC50 is 7.52.
For `NC(=O)N1CCc2c(c(-c3ccc(Cl)c(C#Cc4ccc(CN5CCC(N6CCCC6=O)CC5)cc4)c3)nn2CCCN2CCSCC2)C1` [Example 165, 3-{4-Chloro-3-[(4-{[4-(2-oxopyrrolidin-1-yl)piperidin-1-yl]methyl}phenyl)ethynyl]phenyl}-1-(3-thiomorpholin-4-ylpropyl)-1,4,6,7-tetrahydro-5H-pyrazolo[4,3-c]pyridine-5-carboxamide], the pIC50 was 6.08.

The assay is the same for the next values; noted with them: CatS IC50.
For the molecule `C[C@H]1COCCN1CCCn1nc(-c2ccc(Cl)c(C#Cc3ccc(CNCc4ccco4)cc3)c2)c2c1CCN(S(C)(=O)=O)C2` [Example 432, 1-[4-({2-Chloro-5-[1-{3-[(3S)-3-methylmorpholin-4-yl]propyl}-5-(methylsulfonyl)-4,5,6,7-tetrahydro-1H-pyrazolo[4,3-c]pyridin-3-yl]phenyl}ethynyl)phenyl]-N-(furan-2-ylmethyl)methanamine], the pIC50 was 6.64.
On the same count and under the same terms, as for `CS(=O)(=O)N1CCc2c(c(-c3ccc(Cl)c(C#Cc4ccc(CNCC(F)(F)F)cc4)c3)nn2CCCN2CCN(c3ccccc3)CC2)C1` [Example 480, N-({4-[(2-Chloro-5-{5-(methylsulfonyl)-1-[3-(4-phenylpiperazin-1-yl)propyl]-4,5,6,7-tetrahydro-1H-pyrazolo[4,3-c]pyridin-3-yl}phenyl)ethynyl]phenyl}methyl)-2,2,2-trifluoroethanamine], the figure is 7.00.
On to `CS(=O)(=O)N1CCc2c(c(-c3ccc(Cl)c(C#Cc4ccc(NCCc5ccccc5)cc4)c3)nn2CCCN2CCOCC2)C1` [Example 327, 4-({2-Chloro-5-[5-(methylsulfonyl)-1-(3-morpholin-4-ylpropyl)-4,5,6,7-tetrahydro-1H-pyrazolo[4,3-c]pyridin-3-yl]phenyl}ethynyl)-N-(2-phenylethyl)aniline], for which the pIC50 is 6.12.
Still for that read-out and setting: the result for `CC(C)CC#Cc1cc(-c2nn(CCCN3CCOCC3)c3c2CN(S(C)(=O)=O)CC3)ccc1Cl` [Example 51, 3-[4-Chloro-3-(4-methyl-pent-1-ynyl)-phenyl]-5-methanesulfonyl-1-(3-morpholin-4-yl-propyl)-4,5,6,7-tetrahydro-1H-pyrazolo[4,3-c]pyridine] reads 5.08; that for `CS(=O)(=O)N1CCc2c(c(-c3ccc(Cl)c(C#Cc4ccc(Cl)cc4)c3)nn2CCCN2CCOCC2)C1` [Example 28, 3-[4-Chloro-3-(4-chloro-phenylethynyl)-phenyl]-5-methanesulfonyl-1-(3-morpholin-4-yl-propyl)-4,5,6,7-tetrahydro-1H-pyrazolo[4,3-c]pyridine], 6.70.
For the molecule `CS(=O)(=O)N1CCc2c(c(-c3ccc(Cl)c(C#Cc4ccc(CNCc5ccc(Cl)cc5)cc4)c3)nn2C[C@H](O)CN2CCSCC2)C1` [Example 262, (R)-1-[3-(4-Chloro-3-{4-[(4-chloro-benzylamino)-methyl]-phenylethynyl}-phenyl)-5-methanesulfonyl-4,5,6,7-tetrahydro-pyrazolo[4,3-c]pyridin-1-yl]-3-thiomorpholin-4-yl-propan-2-ol], the pIC50 is 6.92.
Take `NC(=O)N1CCc2c(c(-c3ccc(Cl)c(C#Cc4ccc(CNCc5ccccc5F)cc4)c3)nn2CCCN2CCSCC2)C1` [Example 542, 3-(4-Chloro-3-{[4-({[(2-fluorophenyl)methyl]amino}methyl)phenyl]ethynyl}phenyl)-1-(3-thiomorpholin-4-ylpropyl)-1,4,6,7-tetrahydro-5H-pyrazolo[4,3-c]pyridine-5-carboxamide]: the pIC50 was 6.74.
On the same count and under the same terms, the result for `CS(=O)(=O)N1CCc2c(c(-c3ccc(Cl)c(C#Cc4cccc(C=O)c4)c3)nn2CCCN2CCOCC2)C1` [Example 184, 3-({2-Chloro-5-[5-(methylsulfonyl)-1-(3-morpholin-4-ylpropyl)-4,5,6,7-tetrahydro-1H-pyrazolo[4,3-c]pyridin-3-yl]phenyl}ethynyl)benzaldehyde] reads 6.49; that for `CS(=O)(=O)N1CCc2c(c(-c3ccc(Cl)c(C#Cc4ccc(CNCc5ccc(Cl)cc5)cc4)c3)nn2CCCN2CCC(N3CCOCC3)CC2)C1` [Example 343, 1-{4-[(2-Chloro-5-{5-(methylsulfonyl)-1-[3-(4-morpholin-4-ylpiperidin-1-yl)propyl]-4,5,6,7-tetrahydro-1H-pyrazolo[4,3-c]pyridin-3-yl}phenyl)ethynyl]phenyl}-N-[(4-chlorophenyl)methyl]methanamine], 7.40.

The record behind these values is patent publication US20080200454A1, “CARBON-LINKED TETRAHYDRO-PYRAZOLO-PYRIDINE MODULATORS OF CATHEPSIN S” (priority 2007, published 2008).
